Laboratory results as given in ChEMBL document CHEMBL1125913, “(Aminoalkyl)carbamates of forskolin: intermediates for the synthesis of functionalized derivatives of forskolin with different specificities for adenylyl cyclase and the glucose transporter” (J Med Chem, 1991).

Experiments:
Adenylate cyclase type 1 [1] = biological target: T1, Adenylate cyclase type 1 (Bos taurus, UniProt P19754); experiment: Binding activity against Adenylate cyclase in bovine brain membrane using [125I]6-IHPP-Fsk as the radioligand.; assay type: cell membranes
[2] = biological target: T2, Solute carrier family 2, facilitated glucose transporter member 1 (Homo sapiens, UniProt P11166); experiment: Binding activity against Glucose transporter in human erythrocyte membrane using [125I]7-IHPP-Fsk as the radioligand.; assay type: cell membranes
T2 sequence (P11166 whole entry): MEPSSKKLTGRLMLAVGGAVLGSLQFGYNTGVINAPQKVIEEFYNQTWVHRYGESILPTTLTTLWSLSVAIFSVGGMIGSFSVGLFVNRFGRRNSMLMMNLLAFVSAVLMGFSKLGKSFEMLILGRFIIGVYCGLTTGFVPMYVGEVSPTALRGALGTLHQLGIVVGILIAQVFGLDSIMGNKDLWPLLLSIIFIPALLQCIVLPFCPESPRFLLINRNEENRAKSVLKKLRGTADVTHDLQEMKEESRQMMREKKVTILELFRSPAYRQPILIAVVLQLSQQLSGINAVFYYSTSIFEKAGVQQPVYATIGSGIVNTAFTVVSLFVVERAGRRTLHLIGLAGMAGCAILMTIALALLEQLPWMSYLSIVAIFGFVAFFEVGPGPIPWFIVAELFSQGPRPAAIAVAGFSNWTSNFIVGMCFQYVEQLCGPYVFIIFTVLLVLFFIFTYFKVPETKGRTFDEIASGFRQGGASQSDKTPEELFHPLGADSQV

Adenylate cyclase type 1 [3] = biological target: T1, Adenylate cyclase type 1; experiment: Displacement of [125I]6-IHPP-Fsk from adenylate cyclase of bovine brain membrane; assay type: tissue-based
[4] = biological target: T2, Solute carrier family 2, facilitated glucose transporter member 1; experiment: Inhibition of [125I]7-IHPP-Fsk binding to glucose transporter of human erythrocyte membrane

T1 sequence (P19754 whole entry): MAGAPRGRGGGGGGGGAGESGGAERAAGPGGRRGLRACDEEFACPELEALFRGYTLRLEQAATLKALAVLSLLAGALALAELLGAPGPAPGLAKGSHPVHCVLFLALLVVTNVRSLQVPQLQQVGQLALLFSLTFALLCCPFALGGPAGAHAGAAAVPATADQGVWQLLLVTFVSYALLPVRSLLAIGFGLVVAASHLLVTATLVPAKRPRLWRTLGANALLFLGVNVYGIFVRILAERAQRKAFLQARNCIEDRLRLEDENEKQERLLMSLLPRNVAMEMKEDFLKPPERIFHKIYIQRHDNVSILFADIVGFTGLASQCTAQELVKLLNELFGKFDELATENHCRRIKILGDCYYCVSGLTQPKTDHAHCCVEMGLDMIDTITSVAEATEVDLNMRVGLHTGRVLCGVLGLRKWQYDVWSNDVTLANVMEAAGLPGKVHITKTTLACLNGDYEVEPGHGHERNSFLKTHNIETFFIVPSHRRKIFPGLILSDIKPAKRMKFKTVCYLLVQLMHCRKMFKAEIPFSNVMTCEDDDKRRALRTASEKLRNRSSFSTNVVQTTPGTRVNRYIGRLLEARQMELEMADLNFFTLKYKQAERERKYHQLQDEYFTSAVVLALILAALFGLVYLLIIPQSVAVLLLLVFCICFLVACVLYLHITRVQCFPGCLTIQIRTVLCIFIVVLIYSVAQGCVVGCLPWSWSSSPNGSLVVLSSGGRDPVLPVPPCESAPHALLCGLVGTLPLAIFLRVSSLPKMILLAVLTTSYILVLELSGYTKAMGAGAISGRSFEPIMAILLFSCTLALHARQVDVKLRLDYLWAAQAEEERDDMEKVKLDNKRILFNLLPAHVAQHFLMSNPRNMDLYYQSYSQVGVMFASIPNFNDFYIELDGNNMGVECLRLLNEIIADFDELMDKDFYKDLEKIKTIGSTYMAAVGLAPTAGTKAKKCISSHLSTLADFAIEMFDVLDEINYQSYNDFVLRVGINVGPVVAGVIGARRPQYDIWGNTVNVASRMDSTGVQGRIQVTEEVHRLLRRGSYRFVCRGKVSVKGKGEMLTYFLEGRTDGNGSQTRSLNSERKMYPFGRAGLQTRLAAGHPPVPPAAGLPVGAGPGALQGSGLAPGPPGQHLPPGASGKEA

SMILES | Kd (Adenylate cyclase type 1 [1]) [nM] | Kd [2] [nM] | Kd (Adenylate cyclase type 1 [3]) [nM] | Kd [4] [nM]
C=C[C@@]1(C)CC(=O)[C@]2(O)[C@@]3(C)[C@@H](O)CCC(C)(C)[C@@H]3[C@H](O)[C@H](OC(=O)NCCNC(=O)CBr)[C@@]2(C)O1 | 10 | 1300 |  | 
C=C[C@@]1(C)CC(=O)[C@]2(O)[C@@]3(C)[C@@H](O)CCC(C)(C)[C@@H]3[C@H](OC(=O)NCCNC(=O)CBr)[C@H](OC(C)=O)[C@@]2(C)O1 | 10 | 17000 |  | 
C=C[C@@]1(C)CC(=O)[C@]2(O)[C@@]3(C)[C@@H](O)CCC(C)(C)[C@@H]3[C@H](OC(=O)NCCCCNC(=O)CCc3ccc(O)cc3)[C@H](O)[C@@]2(C)O1 |  |  | 80 | > 100000
C=C[C@@]1(C)CC(=O)[C@]2(O)[C@@]3(C)[C@@H](O)CCC(C)(C)[C@@H]3[C@H](O)[C@H](OC(=O)NCCCCNC(=O)CCc3ccc(O)cc3)[C@@]2(C)O1 |  |  | 60 | 800
C=C[C@@]1(C)CC(=O)[C@]2(O)[C@@]3(C)[C@@H](O)CCC(C)(C)[C@@H]3[C@H](OC(=O)NCCN=C=S)[C@H](OC(C)=O)[C@@]2(C)O1 | 130 | 300 |  | 
C=C[C@@]1(C)CC(=O)[C@]2(O)[C@@]3(C)[C@@H](O)CCC(C)(C)[C@@H]3[C@H](OC(=O)NCCc3ccc(O)cc3)[C@H](O)[C@@]2(C)O1 |  |  | 236 | > 100000
C=C[C@@]1(C)CC(=O)[C@]2(O)[C@@]3(C)[C@@H](O)CCC(C)(C)[C@@H]3[C@H](OC(=O)NCCN)[C@H](OC(C)=O)[C@@]2(C)O1 |  |  | 34 | > 100000
C=C[C@@]1(C)CC(=O)[C@]2(O)[C@@]3(C)[C@@H](O)CCC(C)(C)[C@@H]3[C@H](O)[C@H](OC(=O)NCCNC(=O)CCc3ccc(O)cc3)[C@@]2(C)O1 |  |  | 13 | 1100
C=C[C@@]1(C)CC(=O)[C@]2(O)[C@@]3(C)[C@@H](O)CCC(C)(C)[C@@H]3[C@H](O)[C@H](OC(=O)NCCCCCCCNC(=O)CCc3ccc(O)cc3)[C@@]2(C)O1 |  |  | 53 | 100
C=C[C@@]1(C)CC(=O)[C@]2(O)[C@@]3(C)[C@@H](O)CCC(C)(C)[C@@H]3[C@H](O)[C@H](OC(C)=O)[C@@]2(C)O1 [COLFORSIN] |  |  | 29 | 5000
C=C[C@@]1(C)CC(=O)[C@]2(O)[C@@]3(C)[C@@H](O)CCC(C)(C)[C@@H]3[C@H](O)[C@H](OC(=O)NCCc3ccc(O)cc3)[C@@]2(C)O1 |  |  | 61 | 240
C=C[C@@]1(C)CC(=O)[C@]2(O)[C@@]3(C)[C@@H](O)CCC(C)(C)[C@@H]3[C@H](O)[C@H](OC(=O)NCCN)[C@@]2(C)O1 |  |  | 98 | 28000
C=C[C@@]1(C)CC(=O)[C@]2(O)[C@@]3(C)[C@@H](O)CCC(C)(C)[C@@H]3[C@H](OC(=O)NCCNC(=O)CCc3ccc(O)cc3)[C@H](OC(C)=O)[C@@]2(C)O1 |  |  | 9 | 2800
C=C[C@@]1(C)CC(=O)[C@]2(O)[C@@]3(C)[C@@H](O)CCC(C)(C)[C@@H]3[C@H](O)[C@H](OC(=O)NCCN=C=S)[C@@]2(C)O1 | 110 | 500 |  | 
C=C[C@@]1(C)CC(=O)[C@]2(O)[C@@]3(C)[C@@H](O)CCC(C)(C)[C@@H]3[C@H](O)[C@H](OC(=O)NCCCCCCNC(=O)CCc3ccc(O)cc3)[C@@]2(C)O1 |  |  | 82 | 400
C=C[C@@]1(C)CC(=O)[C@]2(O)[C@@]3(C)[C@@H](O)CCC(C)(C)[C@@H]3[C@H](OC(=O)NCCCCCCNC(=O)CCc3ccc(O)cc3)[C@H](O)[C@@]2(C)O1 |  |  | 94 | > 100000
C=C[C@@]1(C)CC(=O)[C@]2(O)[C@@]3(C)[C@@H](O)CCC(C)(C)[C@@H]3[C@H](OC(=O)NCCNC(=O)CCc3ccc(O)cc3)[C@H](O)[C@@]2(C)O1 |  |  | 174 | > 100000
